Experimental data reported in patent US4551472A, “Unsymmetrical bis-carbamate compounds” (priority 1984, dated 1985).

What was measured:
[1] = Mammalian Toxicity, peroral toxicity to rat; assay type: in vivo; settings: in vivo, po, read-out: A.O. Rat LD50
Experimental: Certain compounds were also evaluated to determine their peroral toxicity to mammals by conventional methods. The representative animal selected for this experiment was the rat.

[2] = tested on: root-knot nematode, Meloidogyne incognita var. acrita; experiment: Nematocide Test; further: key: 1: severe galling, equal to untreated plants; 2: moderate galling; 3: light galling; 4: very light galling; 5: no galling, perfect control; assay type: in vivo; settings: 3.33 m.g. per jar; cucumber, approximately 3 weeks
Experimental: The test organism used was the infective migratory larvae of the root-knot nematode, Meloidogyne incognita var. acrita, reared in the greenhouse on roots of cucumber plants. Infected plants were removed from the culture, and the roots are chopped very finely. A small amount of this inoculum was added to a pint jar containing approximately 180 cc. of soil. The jars were capped and incubated for one week at room temperature. During this period eggs of the nematode were hatched, and the larval forms migrated into the soil.
Ten ml. of the test formulation were added to each of the two jars for each dosage tested. Following the addition of chemical, the jars were capped, and the contents thoroughly mixed on a ball mill for 5 minutes.
The test compounds were formulated by a standard procedure of solution in acetone addition of an emulsifier, and dilution with water. Primary screening tests were conducted at 3.33 m.g. of the test compound per jar.
The jars were left capped at room temperature for a period of 48 hours, and the contents then transferred to 3 inch pots. Subsequently, the pots were seeded to cucumber as an indicator crop and placed in the greenhouse where they were cared for in the normal fashion for approximately 3 weeks.
The cucumber plants were then taken from the pots, the soil removed from the roots; and the amount of galling visually rated.
In the test for activity against nematodes (nem) activity was rated as follows: […]

Corn = experiment: Phytotoxicity Test, corn; settings: 2500 ppm spray, ten days
Experimental: (§1) Experiments were also conducted to determine the phytotoxicity of representative compounds with respect to healthy fresh plants. […] The test plants were sprayed in accordance with the procedure described above for the Mite Foliage Spray Test so as to deliver approximately 100 milliliters of test solution to the leaves of each plant tested. The sprayed plants and controls were set aside for approximately one hour to allow the foliage to dry and were then placed in the greenhouse. After ten days the plants were visually inspected to determine the extent of foliage injury. A rating of 1 indicates no perceptible injury; 5 indicates the plant was dead and ratings of 2, 3 and 4 indicate intermediate degrees of injury based upon the number and extent to which leaves were injured.

Soy = experiment: Phytotoxicity Test, soy; settings: 2500 ppm spray, ten days
Experimental: as §1

Tom = experiment: Phytotoxicity Test, tomato; settings: 2500 ppm spray, ten days
Experimental: as §1

Cotton = experiment: Phytotoxicity Test, cotton; settings: 2500 ppm spray, ten days
Experimental: as §1

Bean = experiment: Phytotoxicity Test, bean; settings: 2500 ppm spray, ten days
Experimental: as §1

Row | Compound | LD50 [1] | Biological Activity: Nem (nematode, galling rating) [2] | Phytotoxicity: Corn (Corn) | Phytotoxicity: Soy (Soy) | Phytotoxicity: Tom (Tom) | Phytotoxicity: Cotton (Cotton) | Phytotoxicity: Bean (Bean)
1 | CSC(C)=NOC(=O)N(C)SN(C)C(=O)Oc1ccc(C(C)(C)C)cc1 [IX, N-[1-Methylthioacetaldehyde O-(N-methylcarbamoyl)oxime]N-[4-tert-butylphenyl-(N-methylcarbamoyloxy)]sulfide] | 226 mg/kg | 3 | 1 | 1 | 1 | 1 | 1
2 | CCOC(=O)C(=NOC(=O)N(C)SN(C)C(=O)ON=C(C)SC)SC [XIII, N-[1-Methylthioacetaldehyde O-(N-methylcarbamoyl)oxime]N-[1-methylthio-1-ethoxycarbonylformaldehyde O-(N-methylcarbamoyl)oxime]sulfide] | 160 mg/kg | 3 | 1 | 2 | 1 | 1 | 1
3 | CSC(C)=NOC(=O)N(C)SN(C)C(=O)Oc1cccc2ccccc12 [VII, N-[1-Methylthioacetaldehyde O-(N-methylcarbamoyl)oxime]N-[1-naphthylmethylcarbamate]sulfide] | 160 mg/kg | 4 | 1 | 2 | 1 | 2 | 1
4 | CN(SN(C)C(=O)Oc1cccc2ccccc12)C(=O)ON=C1CSCCS1 [XXII, N-[2-O-(N-methylcarbamoyl)oximino-1,4-dithiane]N-[1-naphthyl-(N-methylcarbamoyloxy)]sulfide] | 453 mg/kg | 4 | 1 | 2 | 1 | 1 | 1
5 | CSC(C)=NOC(=O)N(C)SN(C)C(=O)Oc1cccc2c1OC(C)(C)C2 [Example V, N-[1-Methylthioacetaldehyde O-(N-methylcarbamoyl)oxime]N-[2,2-dimethyl-2,3-dihydro-7-(N-methylcarbamoyloxy)benzofuran]sulfide] | 15.9 mg/kg | 5 | 1 | 2 | 2 | 2 | 2
6 | COC(=O)Nc1ccc(OC(=O)N(C)SN(C)C(=O)ON=C(C)SC)cc1C(C)C [XVI, N-[1-Methylthioacetaldehyde O-(N-methylcarbamoyl)oxime]N-[4-methoxycarbonylamino-(N-methylcarbamate)-3-isopropylphenyl]sulfide] | 28.3 mg/kg | 4 | 1 | 1 | 1 | 1 | 1
7 | CSC(C)=NOC(=O)N(C)SN(C)C(=O)ON=C(C)SCCC#N [X] | 67.3 mg/kg | 1 | 1 | 1 | 1 | 2 | 1
8 | C#CCOc1ccccc1OC(=O)N(C)SN(C)C(=O)ON=C(C)SC [XXXIX] | 160 mg/kg | 3 | 1 | 2 | 1 | 2 | 1
9 | CN(SN(C)C(=O)ON=C1SC(C)(C)C(=O)N1C)C(=O)ON=C1CSCCS1 [Example III, N-[2-(O-(N-methylcarbamoyl)oximino]-1,4-dithiane]-N-[2-O-(N-methylcarbamoyl)oximino-3,5,5-trimethylthiazolidin-4-one]sulfide] | 160 mg/kg | 1 | 2 | 2 | 1 | 2 | 1
10 | CSC(C)(C)C=NOC(=O)N(C)SN(C)C(=O)Oc1cccc2ccccc12 [Example VI, N-[2-Methylthio-2-methylpropionaldehyde O-(N-methylcarbamoyl)oxime]N-[1-(N-methylcarbamoyloxy)naphthalene]sulfide] | 2.97 mg/kg | 4 | 1 | 1 | 1 | 1 | 1
11 | CSC(C)=NOC(=O)N(C)SN(C)C(=O)Oc1ccccc1C1SCCS1 [XXXVI] | 50.4 mg/kg | 4 | 1 | 1 | 1 | 1 | 1
12 | CSC(C)=NOC(=O)N(C)SN(C)C(=O)Oc1ccc(C(C)C)cc1 [VIII, N-[1-Methylthioacetaldehyde O-(N-methylcarbamoyl)oxime]N-[4-isopropylphenyl-(N-methylcarbamoyloxy)]sulfide] | 160 mg/kg | 4 | 1 | 1 | 1 | 1 | 1
13 | CN(SN(C)C(=O)Oc1cccc2c1OC(C)(C)C2)C(=O)ON=C1CSCCS1 [XXIV, N-[2-O-(N-methylcarbamoyl)oximino-1,4-dithiane]N-[2,3-dihydro-2,2-dimethyl-7-(N-methylcarbamoyloxy)benzofuran]sulfide] | 20 mg/kg | 5 | 1 | 2 | 1 | 2 | 1
14 | CSC(C)=NOC(=O)N(C)SN(C)C(=O)Oc1ccc([N+](=O)[O-])cc1 [XII, N-[1-Methylthioacetaldehyde O-(N-methylcarbamoyl)oxime]N-[1-(N-methylcarbamoyloxy)-4-nitrobenzene]sulfide] | 453 mg/kg | 1 | 1 | 1 | 1 | 1 | 1
